“And” between values parts separate entries of the source, which are not always exact repeats. Identical values can stand only once. Like-named read-outs stand apart in the source and are kept apart here.
Experiments:
A549 lung cancer cells = assay: MTT cell viability assay, A549 lung cancer cells; assay type: cell-based, human; settings: for IC50: 72 h exposure, MTT assay, read-out: IC50 (Mean ± SEM; μM) A549 (Cancer); for Selectivity Index: IC50 MRC-5 divided by IC50 A549, 72 h, MTT
Protocol: (§1) Benzofurane scaffold, piperazine ring, and urea function are relevant privileged structures present not only in anticancer drugs against breast cancer but also against other types of cancer, such as lung cancer, hepatocarcinoma, and gastric cancer. […] MRC-5 normal lung cells and A549 lung cancer cells were exposed to compounds 31, 32, 35, 37, and cisplatin (a common drug used to treat lung cancer) for 72 h, and cell viability was measured using the MTT assay (Figure 10 and Table 3). Compounds 35 and 37 also had high selectivity for A549 cancer cells.
(§2) Exponentially growing cells were seeded into 96-well plates, and drugs were added 24 h later. Each compound was dissolved with DMSO (Panreac Applichem) to prepare a stock solution (100 mM). The working solutions of specific concentrations were prepared via the dilution of the stock solutions in the culture medium and were immediately used to treat the cells. The remaining stock solutions were aliquoted and frozen at −40 °C. We used different aliquots in each independent experiment to avoid the freeze–thaw cycles. Cells were exposed to the drugs for 72 h. After these 72 h, cell viability was determined with the MTT assay or the resazurin assay. These assays are colorimetric techniques that are widely used to determine cell viability.
(§3) The MTT assay is based on the capability of viable cells to transform the MTT salt into a purple formazan dye. After an incubation period of the cells with the MTT and a solubilization step, the quantity of the colored product is measured with a plate reading spectrophotometer. […] The quantity of formazan produced is presumably proportional to the number of viable cells. After seeding for 24 h, cells were treated with the tested drugs for 72 h. Then, medium was removed, and 125 μL of MTT (1 mg/mL in medium) was added to each well for 3–4 h. Subsequently, 80 μL of 20% sodium dodecyl sulfate (Panreac Applichem) in 20 mM hydrochloric acid (Panreac Applichem) was added to dissolve the insoluble purple formazan product, plates were incubated for 10 h at 37 °C, and optical densities were measured at 540 nm on a multiwell plate spectrophotometer reader.
(§4) In both assays, cell viability was expressed as percentage in relation to controls. All data were averaged from at least two independent experiments and were expressed as mean ± standard error of the mean (SEM). Selectivity indices (SI) were calculated by dividing the IC50 values in the nonmalignant cells by those in the cancer cells.

MRC-5 normal lung cells = assay: MTT cell viability assay, MRC-5 normal lung cells; assay type: cell-based, human; settings: read-out: IC50 (Mean ± SEM; μM) MRC-5 (Normal)
Protocol: as §1, §2, §3, §4

A549 cells = assay: Resazurin cell viability assay, A549 cancer cells; assay type: cell-based, human; settings: for IC50: Homo sapiens
Text: (§5) One key limitation of most anticancer drugs is that they not only target cancer cells but also affect nonmalignant cells with high division rates. This can induce numerous adverse effects, such as severe nausea and vomiting, hair loss, diarrhea, mouth sores, anemia, erythematous eruptions, etc. For example, skin cells, which are constantly renewing themselves, are often damaged by antimetabolites or alkylating agents. This can lead to painful erythematous eruptions. […] These cells are derived from normal adult tissue and have a division rate similar to that of cancer cells. A549 cells and HaCaT cells were exposed to various concentrations of 31, 32, 35, 37, or gemcitabine (a common antimetabolite used to treat cancer) for 72 h. Cell viability was determined with the resazurin assay. Subsequently, the cells were allowed to grow in a drug-free medium for another 72 h. This was performed to test their survival and proliferation ability after the removal of the compounds. Cell viability was again measured with the resazurin assay. […] It should be mentioned that cells exposed to high concentrations of compounds above 100 μM were unable to recover after treatment.
as §2
(§6) The resazurin assay measures the ability of viable cells to transform the blue compound resazurin into the pink compound resorufin. There is a direct correlation between the reduction in resazurin and the number of viable cells. After seeding for 24 h, cells were exposed to several concentrations of compounds. After a 72 h treatment period, the cells were washed once with a phosphate-buffered saline (PBS, biowest), and 150 μL of resazurin (20 μg/mL in the medium) was added to each well. The plates were then incubated for 4–5 h at 37 °C, 5% CO2, and optical densities were measured at 540 nm and 620 nm using a multiwell plate spectrophotometer reader (Imark Bio Rad Laboratories Inc., Hercules, CA, USA). Subsequently, cells were washed once with PBS and allowed to grow for an additional 72 h in drug-free medium to allow them to recuperate from possible damage induced by the tested compounds. After the treatment period, cell viability was measured following the same protocol described above.
as §4

HaCaT cells = assay: Resazurin cell viability assay, HaCaT nonmalignant cells; assay type: cell-based; settings: Homo sapiens; for IC50: 72 h; for CC50: 144 h
Text: as §5, §2, §6, §4

[1] = test system: MCF7 human breast cancer cells; assay: MTT cell viability assay, MCF7 breast cancer cells; assay type: cell-based; settings: for Selectivity Index: IC50 MCF 10A divided by IC50 MCF7, 72 h, MTT; for IC50: 72 h exposure, MTT assay, read-out: IC50 (Mean ± SEM; μM) MCF7 (Cancer)
Protocol: (§7) To evaluate the cytotoxicity of our compounds against cancer cells, they were evaluated in vitro against MCF7 human breast cancer cells. To examine the selectivity of our compounds, they were also studied against MCF 10A human normal cells. Both cell lines were exposed to different concentrations of our compounds for 72 h before measuring cell viability with the 3-(4,5-dimethylthiazol-2-yl)-2,5-diphenyltetrazolium bromide (MTT) assay (for conditions of the MTT assay, see the Experimental Part, Section 3). Docetaxel, an anticancer drug used in clinics, was tested under the same experimental conditions. Data were obtained from at least two independent experiments and were expressed as means ± standard error of means (SEM). The half-maximal inhibitory concentration (IC50) value of each compound was calculated, and the results are collected in Table 2. To evaluate the selective activity of our compounds, the selectivity index (SI) was also calculated. The curves of cell viability of MCF7 cancer cells and MCF 10A normal cells after the treatment with our compounds are shown (Figure 5, Figure 6, Figure 7, Figure 8 and Figure 9 and Figures S1–S4).
as §2, §3, §4

[2] = test system: MCF 10A human normal breast cells; assay: MTT cell viability assay, MCF 10A normal breast cells; assay type: cell-based; settings: 72 h exposure, read-out: IC50 (Mean ± SEM; μM) MCF 10A (Normal)
Protocol: as §7, §2, §3, §4

[3] = Homo sapiens, MRC5, 72 h exposure
[4] = A549, 72 h, 72 h Treatment, resazurin assay, read-out: IC50 (Mean ± SEM; μM) A549 (Cancer)
[5] = A549, 144 h, 72 h Treatment + 72 h Recovery Period, resazurin assay, read-out: IC50 (Mean ± SEM; μM) A549 (Cancer)
[6] = IC50 HaCaT divided by IC50 A549, 72 h Treatment + 72 h Recovery Period, resazurin
[7] = IC50 HaCaT divided by IC50 A549, 72 h Treatment, resazurin
[8] = 72 h Treatment, resazurin assay, read-out: IC50 (Mean ± SEM; μM) HaCaT (Nonmalignant)
[9] = 72 h Treatment + 72 h Recovery Period, resazurin assay, read-out: IC50 (Mean ± SEM; μM) HaCaT (Nonmalignant)

IC50 (A549 lung cancer cells; Homo sapiens, A549) [µM]	IC50 (A549 cells; [4]) [µM]	IC50 (A549 cells; [5]) [µM]	IC50 (A549 cells; A549, 72 h, gemcitabine line in nM, 72 h Treatment + 72 h Recovery Period, resazurin, read-out: IC50 (Mean ± SEM) A549 (Cancer)) [µM]	IC50 (A549 cells; A549, 72 h, gemcitabine line in nM, 72 h Treatment, resazurin, read-out: IC50 (Mean ± SEM) A549 (Cancer)) [µM]	IC50 [1] [µM]	IC50 ([1]; Homo sapiens, MCF7, 72 h) [µM]	SMILES	Selectivity Index (A549 lung cancer cells)	IC50 (MRC-5 normal lung cells; [3]) [µM]	Selectivity Index (A549 cells; [6])	Selectivity Index (A549 cells; [7])	IC50 (HaCaT cells; [8]) [µM]	CC50 (HaCaT cells; [9]) [µM]	Selectivity Index [1]	IC50 [2] [µM]	IC50 (HaCaT cells; gemcitabine line in nM, 72 h Treatment + 72 h Recovery Period, resazurin, read-out: IC50 (Mean ± SEM) HaCaT (Nonmalignant)) [µM]	IC50 (HaCaT cells; gemcitabine line in nM, 72 h Treatment, resazurin, read-out: IC50 (Mean ± SEM) HaCaT (Nonmalignant)) [µM]	IC50 (A549 lung cancer cells) [µM]	IC50 (MRC-5 normal lung cells; 72 h exposure) [µM]
5.2 ± 0.4	6.2 ± 0.6	13.6 ± 0.1	–	–	–	–	CC(C)(C)OC(=O)N1CCN(C(=O)Nc2ccc(Cl)c(C(F)(F)F)c2)C(c2ccccc2)C1 (stereo not drawn) [Compound 32]	1.0 ± 0.1	4.3 ± 0.2	1.1 ± 0.1	1.1 ± 0.1	6.7 ± 0.8	14.9 ± 1.3	12.6 ± 2.6	34.1 ± 2.2	–	–	–	–
–	–	–	0.0093 ± 0.007	0.0035 ± 0.0008	–	–	Nc1ccn([C@@H]2O[C@H](CO)[C@@H](O)C2(F)F)c(=O)n1 [Gemcitabine, reference compound]	–	–	1.0 ± 0.1	3.3 ± 1.4	–	–	–	–	0.0088 ± 0.0065	0.0131 ± 0.0062	–	–
4.8 ± 0.8	17 ± 1.6	17.8 ± 2	–	–	18.6 ± 4.2	< 20	CC(C)(C)OC(=O)N1CCN(C(=O)Nc2cc(C(F)(F)F)ccc2Cl)C(c2ccccc2)C1 (stereo not drawn) [Compound 31]	2.1 ± 0.3	14.2 ± 0.5	–	0.8 ± 0.2	14.5 ± 3.2	30.9 ± 7.5	> 10 and 16.6 ± 1.9	298 ± 56.4	–	–	–	–
18.7 ± 2.7	22.5 ± 2.7	41.6 ± 8.9	–	–	–	57.1 ± 34.7	N#Cc1ccc(NC(=O)N2CCN(C(=O)c3cc4ccccc4o3)CC2c2ccccc2)cc1 (stereo not drawn) [Compound 37]	12.8 ± 1.6	236 ± 5.4	–	1.1 ± 0.1	24.8 ± 1.8	64.6 ± 6.8	> 10	484 ± 233	–	–	–	–
–	–	–	–	–	–	–	N.N.[Cl][Pt][Cl] [Cisplatin, reference compound]	6.3 ± 1.8	–	–	–	–	–	–	–	–	–	8.2 ± 2.2	31.8 ± 5.6
25.6 ± 2.9	28.4 ± 7.3	69.3 ± 20.2	–	–	–	23 ± 3.8	O=C(c1cc2ccccc2o1)N1CCN(C(=O)Nc2ccc([N+](=O)[O-])cc2)C(c2ccccc2)C1 (stereo not drawn) [Compound 35]	6.5 ± 2.1	165 ± 4.1	–	1.6 ± 0.2	41.6 ± 8.1	97.5 ± 16.2	11.1 ± 2.9	244 ± 24.9	–	–	–	–
